Measured values as given in PubChem BioAssay (NCI).
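Values below derive from 48-hour exposures of cells grown in 96-well plates, with endpoints linearly interpolated between the two concentrations bracketing the appropriate inhibition level. At the GI50, growth is halved. Definition used: TGI = concentration required for complete inhibition of growth.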

Experiments:
Assay in all cases: DTP human tumour cell line panel, 48 h
[1] = tested on: NCI-H23 lung
[2] = tested on: NCI-H460 lung
[3] = tested on: NCI-H522 lung
[4] = tested on: NCI/ADR-RES ovarian
[5] = tested on: OVCAR-3 ovarian
[6] = tested on: OVCAR-4 ovarian
[7] = tested on: OVCAR-5 ovarian
[8] = tested on: OVCAR-8 ovarian
[9] = tested on: PC-3 prostate
[10] = tested on: RPMI-8226 leukemia
[11] = tested on: RXF 393 renal
[12] = tested on: SF-268 CNS
[13] = tested on: SF-295 CNS
[14] = tested on: SF-539 CNS
[15] = tested on: SK-MEL-2 melanoma
[16] = tested on: SK-MEL-28 melanoma
[17] = tested on: SK-MEL-5 melanoma
[18] = tested on: SK-OV-3 ovarian
[19] = tested on: SN12C renal
[20] = tested on: SNB-19 CNS
[21] = tested on: SNB-75 CNS
[22] = tested on: SR leukemia
[23] = tested on: SW-620 colon
[24] = tested on: T-47D breast
[25] = tested on: TK-10 renal
[26] = tested on: U251 CNS
[27] = tested on: UACC-257 melanoma
[28] = tested on: UACC-62 melanoma
[29] = tested on: UO-31 renal

CNC(=O)c1cccc(C#Cc2cncnc2Nc2ccc(OCc3cccc(F)c3)c(Cl)c2)c1
GI50 [1]: 7.5 µM
TGI [1]: 24.2 µM
GI50 [2]: 5.04 µM
TGI [2]: 12.9 µM
GI50 [3]: 5.29 µM
TGI [3]: > 25 µM
GI50 [4]: 6.94 µM
TGI [4]: > 25 µM
GI50 [5]: 3.82 µM
TGI [5]: 8.03 µM
GI50 [6]: 4.23 µM
TGI [6]: 12.3 µM
GI50 [7]: 7.34 µM
TGI [7]: > 25 µM
GI50 [8]: 7.3 µM
TGI [8]: > 25 µM
GI50 [9]: 7.49 µM
TGI [9]: > 22.8 µM
GI50 [10]: 14 µM
TGI [10]: > 25 µM
GI50 [11]: 2.91 µM
TGI [11]: 11.7 µM
GI50 [12]: 4.54 µM
TGI [12]: 12.9 µM
GI50 [13]: 5.45 µM
TGI [13]: 20.5 µM
GI50 [14]: 4.39 µM
TGI [14]: 9.69 µM
GI50 [15]: 8.82 µM
TGI [15]: > 25 µM
GI50 [16]: 5.82 µM
TGI [16]: > 17.7 µM
GI50 [17]: 5.8 µM
TGI [17]: > 20.7 µM
GI50 [18]: 3.19 µM
TGI [18]: 12.7 µM
GI50 [19]: 12 µM
TGI [19]: > 25 µM
GI50 [20]: 6.9 µM
TGI [20]: > 25 µM
GI50 [21]: 5.26 µM
TGI [21]: 14.4 µM
GI50 [22]: 24.2 µM
TGI [22]: > 25 µM
GI50 [23]: 7.16 µM
TGI [23]: > 25 µM
GI50 [24]: 3.18 µM
TGI [24]: 15.7 µM
GI50 [25]: 1.46 µM
TGI [25]: 9.03 µM
GI50 [26]: 4.47 µM
TGI [26]: 10.2 µM
GI50 [27]: 9.72 µM
TGI [27]: > 25 µM
GI50 [28]: 16 µM
TGI [28]: > 25 µM
GI50 [29]: 1.58 µM
TGI [29]: > 25 µM
